Structures are written as SMILES. Where two headings read alike, the source gives them in different places.

Holding throughout (assay type): cell-based
The test system of series [1] is colon cancer cell line RKO. As to the kind of experiment: Growth profile / viability of RKO colon cancer cells, XTT test. The conditions noted are these: 96 h, Control DMSO = 100%, read-out: percentage of viable cells, RKO. The method, then: (§1) The effect of the compounds Z522-XXX on the growth profile of cancer cells which express Fer was tested. The cells that were tested were: the colon cancer cell lines HT29 and HCT 116, RKO. The effect of each of the compounds on FS cells, a non malingnant fibroblastic cell line, was also studied.
(§2) Generally, cells were seeded in 96 wells microplates and were left to grow untreated overnight. Each of the compounds was dissolved in DMSO and was then added to each well in a final concentration of 5 μM. The concentration of DMSO in each well was 0.4% v/v. Untreated cells and cells subjected to 0.4% DMSO alone, served as controls. The percentage of viable cells in each well was determined 96 hours after compounds addition, using the XTT test (Berridge, M. V. et al, 2005).
For orientation: Tetrazolium assays rely on reduction of a dye to a coloured formazan, in cell work by metabolically active cells.

In series [2] the test system is colon cancer cell line HT29. As to the kind of experiment: Growth profile / viability of HT29 colon cancer cells, XTT test. The conditions noted are these: Homo sapiens, HT-29, 96 h, Control DMSO = 100%, read-out: percentage of viable cells, HT29. Here is the method: as §1, §2
The test system of series [3] is colon cancer cell line HCT 116. The experiment in a line: Growth profile / viability of HCT116 colon cancer cells, XTT test. The conditions noted are these: Homo sapiens, HCT-116, 96 h, Control DMSO = 100%, read-out: percentage of viable cells, HCT116. Here is the method: as §1, §2
Series [4] can be described thus: Viability of FS non malignant fibroblastic cells, XTT test. The conditions noted are these: FS cells (non-malignant fibroblastic cell line), Control DMSO = 100%, read-out: percentage of viable cells, FS. The method, then:
as §1, §2

As to `CN1CCN(C(=O)C2CCN(c3nn4cc(-c5ccc(N6CCN(C)CC6)cc5)nc4s3)CC2)CC1` [Compound Z522-0160, 2-{4-[(4-methylpiperazin-1-yl)carbonyl]-piperidin-1-yl}-6-[4-(4-methyl-piperazin-1-yl)-phenyl]imidazo[2,1-b][1,3,4]-thiadiazole], the viability at 5 µM came to 92% in series [1] (first RKO column); 109% in series [1] (second RKO column); 117% in series [2] (first HT29 column); 91% in series [2] (second HT29 column); 105% in series [3] (first HCT116 column); 108% in series [3] (second HCT116 column). Further, the values for the viability at 96 h, 5 µM in series [4] (first FS column) and in series [4] (second FS column) were 101% and 104%, respectively.
Take `CCN(CC)CCN(CC)C(=O)C1CCN(c2nn3cc(-c4ccc(Cl)cc4)nc3s2)CC1` [Compound Z522-0199, 1-[6-(4-chlorophenyl)imidazo[2,1-b][1,3,4]thiadiazol-2-yl]-N-[2-(diethylamino)ethyl]-N-ethylpiperidine-4-carboxamide]: in series [2] (second HT29 column), the viability at 5 µM came to 1%. Also, the viability at 96 h, 5 µM in series [4] (first FS column) worked out at 19%; in series [4] (second FS column) it was 21%.
Turning to `CN1CCC(N(C)C(=O)C2CCN(c3nn4cc(-c5ccc(Cl)cc5)nc4s3)CC2)CC1` [Compound Z522-0202, 1-[6-(4-chlorophenyl)imidazo[2,1-b][1,3,4]thiadiazol-2-yl]-N-methyl-N-(1-methylpiperidin-4-yl)piperidine-4-carboxamide], the viability at 5 µM was 1% in series [2] (first HT29 column), 0% in series [2] (second HT29 column) and 5% in series [3] (first HCT116 column). Moreover, the results for the viability at 96 h, 5 µM in series [4] (first FS column) and in series [4] (second FS column) were 73% and 69%, respectively.
On to `CN(C)CCN1CCN(C(=O)C2CCN(c3nn4cc(-c5ccc(Cl)cc5)nc4s3)CC2)CC1` [Compound Z522-0206], for which the viability at 5 µM in series [3] (first HCT116 column) amounted to 1%. The viability at 96 h, 5 µM in series [4] (first FS column) came out at 2%; in series [4] (second FS column), 6%.
For the compound `CN1CCC(N2CCN(C(=O)C3CCN(c4nn5cc(-c6ccc(Cl)cc6)nc5s4)CC3)CC2)CC1` [Compound Z522-0207, 6-(4-chlorophenyl)-2-(4-{[4-(1-methylpiperidin-4-yl)piperazin-1-yl]carbonyl}piperidin-1-yl)imidazo[2,1-b][1,3,4]thiadiazole], the viability at 5 µM in series [2] (first HT29 column) is 3%; in series [2] (second HT29 column) it was 0%; in series [3] (first HCT116 column) it was 0%; in series [3] (second HCT116 column), 4%. The viability at 96 h, 5 µM in series [4] (first FS column) was 3%; in series [4] (second FS column), 16%.
As for `O=C(C1CCN(c2nn3cc(-c4ccc(Cl)cc4)nc3s2)CC1)N1CCCCC1CCN1CCOCC1` (centres unmarked) [Compound Z522-0211, 6-(4-chlorophenyl)-2-(4-{[2-(2-morpholin-4-ylethyl)piperidin-1-yl]carbonyl}piperidin-1-yl)imidazo[2,1-b][1,3,4]thiadiazole], the viability at 5 µM in series [2] (first HT29 column) was 64%; in series [2] (second HT29 column), 60%; in series [3] (first HCT116 column), 72%; in series [3] (second HCT116 column) it was 61%. Also, the values for the viability at 96 h, 5 µM in series [4] (first FS column) and in series [4] (second FS column) were 75% and 81%, respectively.
For `O=C(C1CCN(c2nn3cc(-c4ccc(Cl)cc4)nc3s2)CC1)N1CCCCC1CN1CCCC1` (centres unmarked) [Compound Z522-0212, 6-(4-chlorophenyl)-2-(4-{[2-(pyrrolidin-1-ylmethyl)piperidin-1-yl]carbonyl}piperidin-1-yl)imidazo[2,1-b][1,3,4]thiadiazole], the values for the viability at 5 µM in series [2] (first HT29 column), in series [2] (second HT29 column) and in series [3] (first HCT116 column) were 1%, 0% and 2%, respectively. Moreover, the viability at 96 h, 5 µM in series [4] (second FS column) is 1%.
With `CN(C)CCNC(=O)CN1CCN(C(=O)C2CCN(c3nn4cc(-c5ccc(Cl)cc5)nc4s3)CC2)CC1` [Compound Z522-0218, 2-[4-({1-[6-(4-chlorophenyl)imidazo[2,1-b][1,3,4]thiadiazol-2-yl]piperidin-4-yl}carbonyl)piperazin-1-yl]-N-[2-(dimethylamino)ethyl] acetamide], the viability at 5 µM worked out at 3% in series [2] (first HT29 column), 4% in series [2] (second HT29 column), 51% in series [3] (first HCT116 column) and 19% in series [3] (second HCT116 column). Further, the viability at 96 h, 5 µM turned out to be 82% in series [4] (first FS column) and 84% in series [4] (second FS column).
As to `CN(C)CCN(Cc1ccco1)C(=O)C1CCN(c2nn3cc(-c4ccc(Cl)cc4)nc3s2)CC1` [Compound Z522-0220, 1-[6-(4-chlorophenyl)imidazo[2,1-b][1,3,4]thiadiazol-2-yl]-N-[2-(dimethylamino)ethyl]-N-(2-furylmethyl)piperidine-4-carboxamide], the viability at 5 µM in series [2] (first HT29 column) stood at 0%; in series [3] (first HCT116 column) it was 1%; in series [3] (second HCT116 column), 3%. The viability at 96 h, 5 µM in series [4] (first FS column) was found to be 61%; in series [4] (second FS column), 49%.
As to `CCN1CCN(CC2CCN(C(=O)C3CCN(c4nn5cc(-c6ccc(Cl)cc6)nc5s4)CC3)CC2)CC1` [Compound Z522-0221, 6-(4-chlorophenyl)-2-[4-({4-[(4-ethylpiperazin-1-yl)methyl]piperidin-1-yl}carbonyl)piperidin-1-yl]imidazo[2,1-b][1,3,4]thiadiazole], the viability at 5 µM in series [3] (first HCT116 column) and in series [3] (second HCT116 column) was 1% throughout.
Turning to `CCN(CC)CCN(CC)C(=O)C1CCN(c2nn3cc(-c4ccc(C(C)C)cc4)nc3s2)CC1` [Compound Z522-0222, N-[2-(diethylamino)ethyl]-N-ethyl-1-[6-(4-isopropylphenyl)imidazo[2,1-b][1,3,4]thiadiazol-2-yl]piperidine-4-carboxamide], the viability at 5 µM in series [3] (first HCT116 column) turned out to be 1%. The viability at 96 h, 5 µM in series [4] (first FS column) and in series [4] (second FS column) was 56% in each case.
In the case of `CC(C)c1ccc(-c2cn3nc(N4CCC(C(=O)N5CCCN(C)CC5)CC4)sc3n2)cc1` [Compound Z522-0224, 6-(4-isopropylphenyl)-2-{4-[(4-methyl-1,4-diazepan-1-yl)carbonyl]piperidin-1-yl}imidazo[2,1-b][1,3,4]thiadiazole], the viability at 5 µM in series [2] (first HT29 column), in series [2] (second HT29 column) and in series [3] (first HCT116 column) was 0% each time. The figures for the viability at 96 h, 5 µM in series [4] (first FS column) and in series [4] (second FS column) were 60% and 67%, respectively.
Consider `CC(C)c1ccc(-c2cn3nc(N4CCC(C(=O)N(C)C5CCN(C)CC5)CC4)sc3n2)cc1` [Compound Z522-0225, 1-[6-(4-isopropylphenyl)imidazo[2,1-b][1,3,4]thiadiazol-2-yl]-N-methyl-N-(1-methylpiperidin-4-yl)piperidine-4-carboxamide], for which the viability at 5 µM in series [3] (first HCT116 column) was 1%; in series [3] (second HCT116 column) it was 0%. Besides, the viability at 96 h, 5 µM in series [4] (first FS column) was 65%; in series [4] (second FS column), 28%.
The like results for `CC(C)c1ccc(-c2cn3nc(N4CCC(C(=O)N5CCN(C6CCN(C)CC6)CC5)CC4)sc3n2)cc1` [Compound Z522-0230, 6-(4-isopropylphenyl)-2-(4-{[4-(1-methylpiperidin-4-yl)piperazin-1-yl]carbonyl}piperidin-1-yl)imidazo[2,1-b][1,3,4]thiadiazole] were, in that order, 2%, 0%, 22% and 39%.
Take `CC(C)c1ccc(-c2cn3nc(N4CCC(C(=O)N5CCCCC5CCN5CCOCC5)CC4)sc3n2)cc1` (centres unmarked) [Compound Z522-0234, 6-(4-isopropylphenyl)-2-(4-{[2-(2-morpholin-4-ylethyl)piperidin-1-yl]carbonyl}piperidin-1-yl)imidazo[2,1-b][1,3,4]thiadiazole]: the viability at 5 µM worked out at 12% in series [2] (first HT29 column), 7% in series [2] (second HT29 column), 60% in series [3] (first HCT116 column) and 54% in series [3] (second HCT116 column). Also, the viability at 96 h, 5 µM in series [4] (first FS column) amounted to 62%; in series [4] (second FS column), 105%.
`CC(C)c1ccc(-c2cn3nc(N4CCC(C(=O)N5CCCCC5CN5CCCC5)CC4)sc3n2)cc1` (centres unmarked) [Compound Z522-0235, 6-(4-isopropylphenyl)-2-(4-{[2-(pyrrolidin-1-ylmethyl)piperidin-1-yl]carbonyl}piperidin-1-yl)imidazo[2,1-b][1,3,4]thiadiazole]: the viability at 5 µM in series [3] (first HCT116 column) and in series [3] (second HCT116 column) was 1% throughout. Besides, the viability at 96 h, 5 µM in series [4] (second FS column) is 14%.
With `CCN1CCN(CC2CCN(C(=O)C3CCN(c4nn5cc(-c6ccc(C(C)C)cc6)nc5s4)CC3)CC2)CC1` [Compound Z522-0244, 2-[4-({4-[(4-ethylpiperazin-1-yl)methyl]piperidin-1-yl}carbonyl)piperidin-1-yl]-6-(4-isopropylphenyl) imidazo[2,1-b][1,3,4]thiadiazole], the viability at 5 µM in series [1] (second RKO column) turned out to be 0%; in series [2] (first HT29 column), 1%; in series [2] (second HT29 column), 0%; in series [3] (second HCT116 column), 0%.

Values taken from patent US20180186815A1, “PHARMACEUTICAL COMPOSITIONS, METHODS FOR THEIR PREPARATION AND THEIR USE IN THE TREATMENT OF CANCER” (Urifer Ltd., priority 2016, published 2018).
